# Source: article PMC9603373 (Microbiology Spectrum, 2022)
# Marks after values point to notes of the source that are not given here.
# How the values were obtained:
# [1] = test system: vancomycin-resistant Enterococcus faecium isolate NTUH664 (DSE); format: cell-based; conditions: broth microdilution, cation-adjusted Mueller-Hinton broth + 50 μg/mL calcium
# Method: (§1) Blood culture isolates were obtained from a clinical microbiology laboratory. Enterococcus spp. were identified using the Vitek 2 identification system (bioMérieux Inc., La Balme les Grottes, France). The MIC of vancomycin was determined using a Sensititre GPN3F (Trek Diagnostics, West Sussex, England). […] We used cation-adjusted Mueller-Hinton broth (Becton, Dickinson, Le Pont-de-Claix, France) supplemented with 50 μg/mL calcium. The MIC breakpoints were based on the CLSI criteria of interpretation ([15]).
# [2] = test system: vancomycin-resistant Enterococcus faecium isolate NTUH688 (DNSE); format: cell-based; conditions: broth microdilution, cation-adjusted Mueller-Hinton broth + 50 μg/mL calcium
# Method: as §1
# [3] = test system: daptomycin nonsusceptible Enterococcus faecium (NTUH688); test: Rat infective endocarditis model, DNSE; format: in vivo; conditions: for blood_cfu / log_blood_cfu / log_veg_cfu / veg_cfu / veg_sterile: DNSE MIC 8, delay 48 h; for Bacterial load in blood / Rate of sterile vegetation / Bacterial load of vegetation: Wistar rat IE, DNSE MIC 8 mg/L, 48 h from inoculation to treatment; for Bacterial load in blood / Bacterial load of vegetation: mean (SD), SD; for Bacterial load in blood / Rate of sterile vegetation: n = 3; for Bacterial load of vegetation: sacrifice 24 h after last dose, n = 3, detection limit 2 log10 CFU/g; for veg_sterile: flag 1/0;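 on all read-outs here: Catheter-induced aortic valve endocarditis in male Wistar rats, treated 3 days, bacteria counted by plating vegetation and blood homogenates on brain heart infusion agar, control rats given phosphate-buffered saline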
# Method: (§2) Approval for animal use was obtained from the National Taiwan University Institutional Animal Care and Use Committee before the commencement of the experiments. Endocarditis was induced in male Wistar rats weighing ~330 g by using previously developed methodologies with slight modifications ([46]). To expose the right carotid artery for the placement of an intravascular catheter, the animals were anesthetized with 1 μL/g of Zoletil 50 (1 mg/mL) plus Rompun (23.32 mg/mL). A sterile polyethylene catheter (Intramedic PE-10; Clay Adams, Parsippany, NJ, USA) was inserted through a small incision and advanced 4 cm into the left ventricle. The catheter was ligated and left in place for the duration of the experiment. 24 h after the catheter was placed across the aortic valve, the bacterial inoculum, which was presuspended in saline, and 1 mL of 10^8 CFU/mL of VRE were administered intravenously via the tail vein. We evaluated the actual inoculum based on the CFU count. The rats received antibiotic treatment at 24 h or 48 h after the bacterial inoculation.
# (§3) The animals were treated for 3 days. A group of infected but phosphate-buffered saline-treated rats was used as a control. 24 h after the last treatment, the animals were sacrificed via anesthetic overdose. The aortic valve vegetation and 1 mL of blood were obtained aseptically from the sacrificed animals, weighed, and homogenized in 1 mL of phosphate-buffered saline. Serial dilutions of homogenized tissues were performed, and 100 μL of each dilution, including the undiluted sample, were plated on brain heart infusion agar to enumerate the bacteria. The animals were included in the final analysis only if they survived the entire therapy and if their catheters were found across the aortic valve in the left ventricle. The detection limit of the bacterial load of vegetation was 2 log10 CFU/g.
# [4] = in vivo; conditions: male, Wistar, rat, plasma, SD
# Method: The experiments were performed in triplicate. […] Plasma was collected via centrifugation, and the samples were stored at −80°C until analysis.
# All of the UHPLC-ESI-MS/MS analyses were performed using an Agilent 1290 UHPLC system coupled with an Agilent 6460 triple quadrupole mass spectrometer (Agilent Technologies, Santa Clara, CA, USA).
# [5] = test system: daptomycin-susceptible, dose-dependent Enterococcus faecium (NTUH664); test: Rat infective endocarditis model, DSE; conditions: for Bacterial load in blood / Rate of sterile vegetation / Bacterial load of vegetation: Wistar rat IE, DSE MIC 0.5 mg/L; for Bacterial load in blood / Bacterial load of vegetation: mean (SD); for Bacterial load in blood / Rate of sterile vegetation: n = 3; for Bacterial load of vegetation: sacrifice 24 h after last dose, n = 3, detection limit 2 log10 CFU/g; for veg_sterile: flag 1/0;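 on all read-outs here: male Wistar rats with catheter-induced aortic valve endocarditis, dosed for 3 days, CFU counted in vegetation and blood, saline-treated infected controls, vegetation detection limit 2 log10 CFU/g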
# Method: as §2, §3
# [6] = 45 mg/kg sc, rat 1 of 3 (row order)
# [7] = 45 mg/kg sc, rat 2 of 3 (row order)
# [8] = 45 mg/kg sc, rat 3 of 3 (row order)
# [9] = 90 mg/kg sc, rat 1 of 3 (row order)
# [10] = 90 mg/kg sc, rat 2 of 3 (row order)
# [11] = 90 mg/kg sc, rat 3 of 3 (row order)
# [12] = DSE MIC 0.5, delay 24 h, 12 mg/kg iv, rat 1 of 3 (row order)
# [13] = DSE MIC 0.5, delay 24 h, 12 mg/kg iv, rat 2 of 3 (row order)
# [14] = DSE MIC 0.5, delay 24 h, 12 mg/kg iv, rat 3 of 3 (row order)
# [15] = DSE MIC 0.5, delay 24 h, 45 mg/kg sc, rat 1 of 3 (row order)
# [16] = DSE MIC 0.5, delay 24 h, 45 mg/kg sc, rat 2 of 3 (row order)
# [17] = DSE MIC 0.5, delay 24 h, 45 mg/kg sc, rat 3 of 3 (row order)
# [18] = DSE MIC 0.5, delay 24 h, 90 mg/kg sc, rat 1 of 3 (row order)
# [19] = DSE MIC 0.5, delay 24 h, 90 mg/kg sc, rat 2 of 3 (row order)
# [20] = DSE MIC 0.5, delay 24 h, 90 mg/kg sc, rat 3 of 3 (row order)
# [21] = DSE MIC 0.5, delay 48 h, 12 mg/kg iv, rat 1 of 3 (row order)
# [22] = DSE MIC 0.5, delay 48 h, 12 mg/kg iv, rat 2 of 3 (row order)
# [23] = DSE MIC 0.5, delay 48 h, 12 mg/kg iv, rat 3 of 3 (row order)
# [24] = DSE MIC 0.5, delay 48 h, 45 mg/kg sc, rat 1 of 3 (row order)
# [25] = DSE MIC 0.5, delay 48 h, 45 mg/kg sc, rat 2 of 3 (row order)
# [26] = DSE MIC 0.5, delay 48 h, 45 mg/kg sc, rat 3 of 3 (row order)
# [27] = DSE MIC 0.5, delay 48 h, 90 mg/kg sc, rat 1 of 3 (row order)
# [28] = DSE MIC 0.5, delay 48 h, 90 mg/kg sc, rat 2 of 3 (row order)
# [29] = DSE MIC 0.5, delay 48 h, 90 mg/kg sc, rat 3 of 3 (row order)
# [30] = 48 h from inoculation to treatment, 12 mg/kg/day i.v. 3 days, SD
# [31] = 48 h from inoculation to treatment, 45 mg/kg/day s.c. 3 days, SD
compound,measurement,setting,value
"CCCCCCCCCC(=O)N[C@@H](Cc1c[nH]c2ccccc12)C(=O)N[C@H](CC(N)=O)C(=O)N[C@@H](CC(=O)O)C(=O)N[C@@H]1C(=O)NCC(=O)N[C@@H](CCCN)C(=O)N[C@@H](CC(=O)O)C(=O)N[C@H](C)C(=O)N[C@@H](CC(=O)O)C(=O)NCC(=O)N[C@H](CO)C(=O)N[C@@H]([C@H](C)CC(=O)O)C(=O)N[C@@H](CC(=O)c2ccccc2N)C(=O)O[C@@H]1C [daptomycin, Daptomycin]",daptomycin MIC,[1],0.5 µg/mL
same,daptomycin MIC,[2],8 µg/mL
same,blood_cfu,[3]; [6],180
same,log_blood_cfu,[3]; [6],2.26
same,log_veg_cfu,[3]; [6],7
same,veg_cfu,[3]; [6],5410000
same,blood_cfu,[3]; [7],0
same,log_blood_cfu,[3]; [7],0
same,log_veg_cfu,[3]; [7],7
same,veg_cfu,[3]; [7],7620000
same,blood_cfu,[3]; [8],0
same,log_blood_cfu,[3]; [8],0
same,log_veg_cfu,[3]; [8],7
same,veg_cfu,[3]; [8],13600000
same,blood_cfu,[3]; [9],0
same,log_blood_cfu,[3]; [9],0
same,log_veg_cfu,[3]; [9],5
same,veg_cfu,[3]; [9],80400
same,blood_cfu,[3]; [10],0
same,log_blood_cfu,[3]; [10],0
same,log_veg_cfu,[3]; [10],5
same,veg_cfu,[3]; [10],110000
same,blood_cfu,[3]; [11],0
same,log_blood_cfu,[3]; [11],0
same,log_veg_cfu,[3]; [11],5.59
same,veg_cfu,[3]; [11],390000
same,Bacterial load in blood,[3]; 45 mg/kg/day s.c. 3 days,0.75 (1.30) log10 CFU/mL
same,Rate of sterile vegetation,[3]; 45 mg/kg/day s.c. 3 days,0
same,Bacterial load of vegetation,"[3]; 45 mg/kg/day s.c. 3 days, 45 mg/kg/day",6.92 (0.20)^f log10 CFU/g
same,Bacterial load in blood,[3]; 90 mg/kg/day s.c. 3 days,0 (0) log10 CFU/mL
same,Rate of sterile vegetation,[3]; 90 mg/kg/day s.c. 3 days,0
same,Bacterial load of vegetation,"[3]; 90 mg/kg/day s.c. 3 days, 90 mg/kg/day","5.18 (0.36)^g^,^h log10 CFU/g"
same,veg_sterile,[3]; [6],0
same,veg_sterile,[3]; [7],0
same,veg_sterile,[3]; [8],0
same,veg_sterile,[3]; [9],0
same,veg_sterile,[3]; [10],0
same,veg_sterile,[3]; [11],0
same,Tmax,"[4]; iv, 12 mg/kg",0.3 h
same,cmax,"[4]; iv, 12 mg/kg",106000 ng/mL
same,half-life,"[4]; iv, 12 mg/kg",4.6 h
same,Tmax,"[4]; sc, 45 mg/kg",3.3 h
same,cmax,"[4]; sc, 45 mg/kg",123000 ng/mL
same,half-life,"[4]; sc, 45 mg/kg",3 h
same,Tmax,"[4]; sc, 90 mg/kg",3.3 h
same,cmax,"[4]; sc, 90 mg/kg",178000 ng/mL
same,half-life,"[4]; sc, 90 mg/kg",2.9 h
same,blood_cfu,[5]; [12],0
same,log_blood_cfu,[5]; [12],0
same,log_veg_cfu,[5]; [12],0
same,veg_cfu,[5]; [12],0
same,blood_cfu,[5]; [13],0
same,log_blood_cfu,[5]; [13],0
same,log_veg_cfu,[5]; [13],0
same,veg_cfu,[5]; [13],0
same,blood_cfu,[5]; [14],0
same,log_blood_cfu,[5]; [14],0
same,log_veg_cfu,[5]; [14],0
same,veg_cfu,[5]; [14],0
same,blood_cfu,[5]; [15],0
same,log_blood_cfu,[5]; [15],0
same,log_veg_cfu,[5]; [15],0
same,veg_cfu,[5]; [15],0
same,blood_cfu,[5]; [16],0
same,log_blood_cfu,[5]; [16],0
same,log_veg_cfu,[5]; [16],0
same,veg_cfu,[5]; [16],0
same,blood_cfu,[5]; [17],0
same,log_blood_cfu,[5]; [17],0
same,log_veg_cfu,[5]; [17],0
same,veg_cfu,[5]; [17],0
same,blood_cfu,[5]; [18],0
same,log_blood_cfu,[5]; [18],0
same,log_veg_cfu,[5]; [18],0
same,veg_cfu,[5]; [18],0
same,blood_cfu,[5]; [19],0
same,log_blood_cfu,[5]; [19],0
same,log_veg_cfu,[5]; [19],0
same,veg_cfu,[5]; [19],0
same,blood_cfu,[5]; [20],0
same,log_blood_cfu,[5]; [20],0
same,log_veg_cfu,[5]; [20],0
same,veg_cfu,[5]; [20],0
same,blood_cfu,[5]; [21],0
same,log_blood_cfu,[5]; [21],0
same,log_veg_cfu,[5]; [21],3.4
same,veg_cfu,[5]; [21],2500
same,blood_cfu,[5]; [22],0
same,log_blood_cfu,[5]; [22],0
same,log_veg_cfu,[5]; [22],3.26
same,veg_cfu,[5]; [22],1800
same,blood_cfu,[5]; [23],0
same,log_blood_cfu,[5]; [23],0
same,log_veg_cfu,[5]; [23],3.17
same,veg_cfu,[5]; [23],1480
same,blood_cfu,[5]; [24],0
same,log_blood_cfu,[5]; [24],0
same,log_veg_cfu,[5]; [24],4.66
same,veg_cfu,[5]; [24],45600
same,blood_cfu,[5]; [25],0
same,log_blood_cfu,[5]; [25],0
same,log_veg_cfu,[5]; [25],4.38
same,veg_cfu,[5]; [25],23900
same,blood_cfu,[5]; [26],0
same,log_blood_cfu,[5]; [26],0
same,log_veg_cfu,[5]; [26],0
same,veg_cfu,[5]; [26],0
same,blood_cfu,[5]; [27],0
same,log_blood_cfu,[5]; [27],0
same,log_veg_cfu,[5]; [27],0
same,veg_cfu,[5]; [27],0
same,blood_cfu,[5]; [28],0
same,log_blood_cfu,[5]; [28],0
same,log_veg_cfu,[5]; [28],0
same,veg_cfu,[5]; [28],0
same,blood_cfu,[5]; [29],0
same,log_blood_cfu,[5]; [29],0
same,log_veg_cfu,[5]; [29],0
same,veg_cfu,[5]; [29],0
same,Bacterial load in blood,"[5]; 24 h from inoculation to treatment, 12 mg/kg/day i.v. 3 days, SD",0 (0) log10 CFU/mL
same,Rate of sterile vegetation,"[5]; 24 h from inoculation to treatment, 12 mg/kg/day i.v. 3 days",100
same,Bacterial load in blood,"[5]; 24 h from inoculation to treatment, 45 mg/kg/day s.c. 3 days, SD",0 (0) log10 CFU/mL
same,Rate of sterile vegetation,"[5]; 24 h from inoculation to treatment, 45 mg/kg/day s.c. 3 days",100
same,Bacterial load in blood,"[5]; 24 h from inoculation to treatment, 90 mg/kg/day s.c. 3 days, SD",0 (0) log10 CFU/mL
same,Rate of sterile vegetation,"[5]; 24 h from inoculation to treatment, 90 mg/kg/day s.c. 3 days",100
same,Bacterial load in blood,[5]; [30],0 (0) log10 CFU/mL
same,Rate of sterile vegetation,"[5]; 48 h from inoculation to treatment, 12 mg/kg/day i.v. 3 days",0
same,Bacterial load of vegetation,[5]; [30],3.27 (0.11) log10 CFU/g
same,Bacterial load in blood,[5]; [31],0 (0) log10 CFU/mL
same,Rate of sterile vegetation,"[5]; 48 h from inoculation to treatment, 45 mg/kg/day s.c. 3 days",0
same,Bacterial load of vegetation,[5]; [31],4.75 (0.42)^g log10 CFU/g
same,Bacterial load in blood,"[5]; 48 h from inoculation to treatment, 90 mg/kg/day s.c. 3 days, SD",0 (0) log10 CFU/mL
same,Rate of sterile vegetation,"[5]; 48 h from inoculation to treatment, 90 mg/kg/day s.c. 3 days",100
same,Bacterial load of vegetation,"[5]; 48 h from inoculation to treatment, 90 mg/kg/day s.c. 3 days, 90 mg/kg/day",0 log10 CFU/g
same,Bacterial load of vegetation,"[5]; 48 h from inoculation to treatment, 90 mg/kg/day s.c. 3 days, 90 mg/kg/day, SD","0 (0)^h^,^i log10 CFU/g"
same,veg_sterile,[5]; [13],1
same,veg_sterile,[5]; [14],1
same,veg_sterile,[5]; [15],1
same,veg_sterile,[5]; [16],1
same,veg_sterile,[5]; [17],1
same,veg_sterile,[5]; [18],1
same,veg_sterile,[5]; [19],1
same,veg_sterile,[5]; [20],1
same,veg_sterile,[5]; [21],0
same,veg_sterile,[5]; [22],0
same,veg_sterile,[5]; [23],0
same,veg_sterile,[5]; [24],0
same,veg_sterile,[5]; [25],0
same,veg_sterile,[5]; [26],1
same,veg_sterile,[5]; [27],1
same,veg_sterile,[5]; [28],1
same,veg_sterile,[5]; [29],1
